Read-outs that look alike come from different tables or passages of the source.
What was measured:
NCI-N87 cells = experiment: anti-Her2 viability assay, NCI-N87 cells (target positive); type: cell-based; details: NCI-N87 target positive cells, 6 days; for IC50: Homo sapiens, 144 h, read-out: N87 IC50
Description: (§1) The anti-Her2 viability assay protocol is following.
(§2) 0.1% BSA was added to the Opti-MEM reduced serum media [Gibco, cat #31985-070]. This assay media was used for the dilution of ADC and free drug.
(§3) Cells were seeded in their growth media into 96 well plates (Thermo #136101) one day prior to adding ADCs: 1000/well SKBR3 cells in 80 uL media (target positive cells), 1000/well NCI-N87 cells in 80 uL media (target positive cells), 1000/well Calu-3 in 80 uL media (target positive cells), and 800/well NCI-H1975 cells in 80ul media (target negative cells).
(§4) Serial dilutions of free drug in 100% DMSO (1:4 10 pts starting from 100 uM) were prepared. Serially diluted payload was transferred into Opti-Mem with 0.1% BSA (10 uL into 990 uL media). Serial dilutions of ADCs/isotype controls at 1:4 in Opti-Mem with 0.1% BSA (starting from 5×1000 nM) were prepared. 20ul assay media diluted ADC/isotype conjugates as well as free drug were transferred to above cells. The plates were incubated at 37° C., 5% CO2 for 6 days. Plates were developed by adding 100ul CellTiter Glo 2.0. RT 5-10 min. Plates were read with Envision plate reader. Data was analyzed using Prism. Only inner 60 well are used for the assay. The edge wells were filled with media to prevent dry out.

[1] = Mouse whole blood stability test; type: in vitro ADME
Description: In vitro stability of Linker-Prodrug in mouse whole blood Scheme 15. Metabolism of LP1 (M2980) in whole blood.
Stock solution of test compound was provided in 100% DMSO. The stock solution for each compound was diluted into 500 μM with mixture of 50% acetonitrile, then diluted into mouse blood to achieve a final concentration of 1.0 μM. 1.0 μM of test compound in duplicate was incubated in blood at 37° C. Aliquots of 50 uL sample was collected at 0, 15, 30, 60, 120, 240, 480 min, and 24 hours. Reactions were terminated at various time points (0, 15, 30, 60, 120, 240, 480 min, 24 hours) by adding 200 μL of ice-cold acetonitrile containing internal standard with 1% formic acid and then ultrasound for 30 seconds. Plate was centrifuged (4000 rpm, 15 min). 50 μL of supernatants were transferred into a daughter plate containing 200 μL of H2O in each well. The samples were mixed well and analyzed with UPLC-MS/MS.
A Waters liquid chromatographic system was used. Detection was performed on AP14000 Q-Trap and AP15500 mass spectrometer equipped with TurbolonSpray (ESI) Interface (Applied Biosystems, Concord, Ontario, Canada). Analyst 1.5 and 1.6.2 software packages (Applied Biosystems) were used to control the LC-MS/MS system, as well as for data acquisition and processing.
Chromatographic separation was achieved on the Wates BEH C18 column (50*2.1 mm ID, 1.7 μm). The column temperature was maintained at ambient temperature (25° C.). The flow rate was maintained at 0.6 mL/min and the following mobile phases were used: water (0.1% formic acid, v/v) (phase A) and acetonitrile (0.1% formic acid, v/v) (phase B).
Test compounds (1.0 μM) were incubated in blood at 37° C. in duplicate. Aliquots of 50 uL sample was collected at 0, 15, 30, 60, 120, 240, 480 min, and 24 hours. Reactions were terminated at various time points (0, 15, 30, 60, 120, 240, 480 min, 24 hours by adding 200 μL of ice-cold acetonitrile containing internal standard with 1% formic acid, then ultrasound for 30 seconds. The plate was centrifuged (4000 rpm, 15 min). 50 μL of supernatants were transferred into a daughter plate containing 200 μL of water in each well. Samples were mixed well and analyzed with UPLC-MS/MS.
The % was calculated based on initial 1 uM as 100% and the standard concentration curve.

in vitro = details: human, plasma
JIMT-1 = experiment: in vitro cell killing activity, JIMT-1 cells (CellTiter Glo viability); type: cell-based; details: JIMT-1 cells; for IC50: Homo sapiens, read-out: JIMT-1 IC50
Description: as §4

SK-BR-3 cells = experiment: SKBR3 cell-based anti-proliferation / viability assay (CellTiter-Glo); design: species or system human; details: for EC50: Homo sapiens, SK-BR-3, read-out: SKBR3 EC50; for SKBR3 % Kill: SKBR3 target positive cells, 6 days
Description: as §1, §2, §3, §4
The cell line used in the anti-proliferation assays was SK-BR-3, a human breast, adenocarcinoma (pleural effusion) cell line; The cells were grown in McCoy's 5a Medium+10% FBS. To run the assay, the cells (80 μl, 1000 cells) were added to each well in a 96-well plate and incubated for 24 hours at 37° C. with CO2. Next, the cells were treated with test compounds (20 μl) at various concentrations in appropriate cell culture medium (total volume, 0.1 mL). The control wells contain cells and the medium but lack the test compounds. The plates were incubated for 144 hours at 37° C. with CO2. CTG reagent was then added to the wells (100 μl). After the plates were shaken for 10 min and then incubated for 10 min at room temperature, paste the clear bottom with white back seal and record luminescence with Envision. The inhibition % was calculated according to the following equation: inhibition %=[1-(assay-blank)/(control-blank)]×100.

Calu-3 = experiment: anti-Her2 viability assay, Calu-3 cells (target positive); type: cell-based; details: Calu-3 target positive cells, 6 days; for IC50: Homo sapiens, 144 h, read-out: Calu-3 IC50
Description: as §1, §2, §3, §4

NCI-H1975 cells = experiment: anti-Her2 viability assay, NCI-H1975 cells (target negative); type: cell-based; details: NCI-H1975 target negative cells, 6 days; for IC50: Homo sapiens, 144 h, read-out: H1975 IC50
Description: as §1, §2, §3, §4

[2] = whole blood, mouse blood, read-out: Mouse blood stability T1/2 (converted)

| SMILES | Human plasma stability % Remaining at 24 h | IC50 (NCI-N87 cells) | N87 % Kill (NCI-N87 cells) | half-life at 1 μM ([1]; mouse, blood) | Mouse blood stability % Remaining at 24 h ([1]; mouse, blood, 1 μM) | half-life (in vitro) | IC50 (JIMT-1) | JIMT-1 % Kill (JIMT-1) | EC50 (SK-BR-3 cells) | SKBR3 % Kill (SK-BR-3 cells) | Calu-3 % Kill (Calu-3) | IC50 (Calu-3) | IC50 (NCI-H1975 cells) | H1975 % Kill (NCI-H1975 cells) | half-life (Human plasma stability) | Human plasma stability % Remaining at 24 h (Human plasma stability) | Mouse blood stability % Remaining at 24 h ([1]; mouse blood) | half-life at 1 μM [1, 2] |
| --- | --- | --- | --- | --- | --- | --- | --- | --- | --- | --- | --- | --- | --- | --- | --- | --- | --- | --- |
| CC[C@@]1(O)C(=O)OCc2c1cc1n(c2=O)Cc2c-1nc1cc(F)c(C)c3c1c2[C@@H](NC(=O)COCNC(=O)[C@@H](N)CO)CC3 [P2, (2S)-2-amino-N-[({[(10S,23S)-10-ethyl-18-fluoro-10-hydroxy-19-methyl-5,9-dioxo-8-oxa-4,15-diazahexacyclo[14.7.1.0^2,14.0^4,13.0^6,11.0^20,24]tetracosa-1,6(11),12,14,16,18,20(24)-heptaen-23-yl]carbamoyl}methoxy)methyl]-3-hydroxypropanamide] | 80.4% | 8.93 nM | 98.4% | 2.5 h | 34.1% | 65.4 h | 23.8 nM | 92.7% | 5.89 nM | 97.0% | 93.2% | 5.68 nM | 19.9 nM | 98.0% | – | – | – | – |
| CC[C@@]1(O)C(=O)OCc2c1cc1n(c2=O)Cc2c-1nc1cc(F)c(C)c3c1c2[C@@H](NC(=O)COCNC(=O)[C@@H](N)CCC(N)=O)CC3 [P3, (2S)-2-amino-N-[({[(10S,23S)-10-ethyl-18-fluoro-10-hydroxy-19-methyl-5,9-dioxo-8-oxa-4,15-diazahexacyclo[14.7.1.0^2,14.0^4,13.0^6,11.0^20,24]tetracosa-1,6(11),12,14,16,18,20(24)-heptaen-23-yl]carbamoyl}methoxy)methyl]pentanediamide] | 48.9% | 30.4 nM | 95.5% | 1 h | 6.5% | 24.1 h | 88.6 nM | 81.3% | 11.6 nM | 94.3% | 90.7% | 15.9 nM | 54.5 nM | 88.5% | – | – | – | – |
| CC[C@@]1(O)C(=O)OCc2c1cc1n(c2=O)Cc2c-1nc1cc(F)c(C)c3c1c2[C@@H](NC(=O)COCNC(=O)[C@@H](N)CCC(=O)O)CC3 [P4, (4S)-4-amino-4-{[({[(10S,23S)-10-ethyl-18-fluoro-10-hydroxy-19-methyl-5,9-dioxo-8-oxa-4,15-diazahexacyclo[14.7.1.0^2,14.0^4,13.0^6,11.0^20,24]tetracosa-1,6(11),12,14,16,18,20(24)-heptaen-23-yl]carbamoyl}methoxy)methyl]carbamoyl}butanoic acid] | – | 9.84 nM | 97.7% | – | – | – | 20.7 nM | 92.0% | 6.63 nM | 96.6% | 93.7% | 5.67 nM | 24.1 nM | 96.8% | 107 h | 90.4% | 66.1% | 9.2 h |
| CC[C@@]1(O)C(=O)OCc2c1cc1n(c2=O)Cc2c-1nc1cc(F)c(C)c3c1c2[C@@H](NC(=O)COCNC(=O)[C@@H](N)Cc1ccccc1)CC3 [P7, (2S)-2-amino-N-[({[(10S,23S)-10-ethyl-18-fluoro-10-hydroxy-19-methyl-5,9-dioxo-8-oxa-4,15-diazahexacyclo[14.7.1.0^2,14.0^4,13.0^6,11.0^20,24]tetracosa-1,6(11),12,14,16,18,20(24)-heptaen-23-yl]carbamoyl}methoxy)methyl]-3-phenylpropanamide] | – | 4.41 nM | – | – | – | – | 13.2 nM | 93.4% | 1.98 nM | 97.0% | 93.7% | 3.32 nM | 8.96 nM | 98.8% | 24.4 h | 51.3% | 6.3% | 0.2 h |

Source: patent US20240269308A1, “PRODRUGS OF TOPOISOMERASE I INHIBITOR FOR ADC CONJUGATIONS AND METHODS OF USE THEREOF” (priority 2022, published 2024)
